According to patent US20130115256A1, “METHODS FOR TREATING OR PREVENTING VASCULAR GRAFT FAILURE” (priority 2010, published 2013):

Assays:
MEK1 = target: T1, MEK1 (Homo sapiens, UniProt Q02750); experiment: MEK1 radiometric kinase assay; type: biochemical; settings: MMI-0100 100 μM; remaining kinase activity
T1 construct: purchased Millipore (KinaseProfiler service)
Source text: (§1) A commercial radiometric assay service was used to test the specificity and potency of MMI-0100 ([…]; SEQ ID NO: 1) by measuring its half maximal inhibitory concentrations (IC50). This quantitative assay measures how much MK2 inhibitor (MMI-0100; […] (SEQ ID NO: 1)) is needed to inhibit 50% of a given biological process or component of a process (i.e., an enzyme, cell, or cell receptor). Specifically, in these assays, a positively charged substrate is phosphorylated with a radiolabeled phosphate group from an ATP if the kinase is not inhibited by an inhibitor peptide. The positively charged substrate then is attracted to a negatively charged filter membrane, quantified with a scintillation counter, and compared to a 100% activity control. ATP concentrations within 15 μM of the apparent Km for ATP were chosen since an ATP concentration near the Km may allow for the kinases to have the same relative amount of phosphorylation activity. The individual conditions for each radiometric assay are as follows.
The reaction was initiated by adding the MgATP. After incubation for 40 minutes at room temperature, 5 μl of this incubation mix was used to initiate the MAPK2 radiometric assay whose reaction condition was the same as the condition for p38 MAPK assay described above.
(§2) IC50 values for inhibitor peptides were determined using Millipore's IC50 Profiler Express service. […]

P38MAPK = experiment: p38 MAPK radiometric kinase assay; type: biochemical; settings: MMI-0100 100 μM; remaining kinase activity
Source text: as §1, with “ATP concentrations within 15 μM of the apparent Km for ATP were chosen since an ATP concentration near the Km may allow for the kinases to have the same relative amount of phosphorylation activity. The individual conditions for each radiometric assay are as follows.” left out
For the p38 MAPK (p38 Mitogen-Activated Protein Kinase) radiometric assay, 5-10 mU of p38 MAPK was incubated with 25 mM Tris pH 7.5, 0.02 mM EGTA, 0.33 mg/mL myelin basic protein (a substrath for p38 MAPK), 10 mM MgAcetate, and 10 μM of [y-^33P-ATP] in the final reaction volume of 25 μl. […] The washed P30 filtermat was dried and its radioactivity was measured by scintillation counter.
as §2

[1] = tested on: human smooth muscle cell (SMC; HASMC); experiment: MTS cell proliferation assay, human smooth muscle cells; type: cell-based
Method: The CellTiter 96® AQueous Non-Radioactive Cell Proliferation Assay (Promega) was used to assess drug effects on cell proliferation according to the manufacturer's instructions. Briefly, HAECs and HASMCs from early passages were grown to 80-90% confluence in 25 cm^2 tissue culture flasks in a 37° C./5% CO2 incubator prior to harvest. 200 μl of each type of cell suspension (at 20,000 cells/cm^2) was seeded onto separate 96-well plates to yield an approximate 60% confluence per well. Cells were allowed to adhere to the plate surface overnight, followed by addition of 20 ng/ml of TNF-α to stimulate production of inflammatory agents. After a 4-6 hour incubation period, MMI-0100 peptide drug ([…]; SEQ ID NO: 1) was added and cells incubated for another 20-24 hours. Each well was then supplemented with 100 μl of fresh medium and 200 μl of CellTiter 96® AQueous One Solution Reagent and incubated for an additional 1.5-2 hours prior to measuring absorbance of each well at 490 nm with a SoftMax®-equipped plate reader.
In order to determine the effect of pharmacological doses of MMI-0100 ([…]; SEQ ID NO: 1) on human endothelial cell (EC) and smooth muscle cell (SMC) proliferation, human EC and SMC cultures were treated with three concentrations (0.25 mM, 0.5 mM, and 1 mM) of MMI-0100 ([…] (SEQ ID NO: 1)) following pre-treatment with TNF-α.

[2] = tested on: mouse lung endothelial cells (MLEC); experiment: Cell apoptosis analysis (annexin V flow cytometry); type: cell-based; settings: any dose; 24 hours
Method: The apoptotic effect of MMI-0100 ([…]; SEQ ID NO: 1) on mouse lung endothelial cells (MLEC) was measured at 24 hours after MMI-0100 ([…]; SEQ ID NO: 1) treatment. MLEC were removed from the tissue culture plate by trypsin, and re-suspended at a concentration of 1.0×10^6 cells/ml. Apoptotic cells were detected by AlexaFluor® 488 annexin V/Dead Cell Apoptosis Kit (Invitrogen) using flow cytometry sorting analysis.

[3] = tested on: mouse lung endothelial cells (MLEC); experiment: MCP-1 production immunoassay; type: cell-based; settings: even at high doses
Method: Monocyte Chemotractic Protein-1 (MCP-1) production from mouse lung endothelial cells (MLEC) was analyzed using conditioned culture medium by Quantikine® Mouse CCL/JE/MCP-1 Immunoassay (R&D Systems) following the manufacturer's instructions. Briefly, the assay employs a quantitative sandwich enzyme immunoassay technique in which a monoclonal antibody specific for MCP-1 has been pre-coated onto a microplaste. Standards and samples are pipetted into the wells and any MCP-1 present is bound by the immobilized antibody. After washing away any unbound substances, an enzyme-linked polyclonal antibody specific for MCP-1 is added to the wells. Following a wash to remove any unbound antibody-enzyme reagent, a substrate solution is added to the wells and color develops in proportion to the amount of MCP-1 bound in the initial step. The color development is stopped and the intensity of the color is measured at 450 nm, with wavelength correction at 540 nm or 570 nm.

[4] = Toxicity observation (test not specified)

For YARAAARQARAKALARQLGVAA [MMI-0100], the “Percent Activity, MEK1” value (MEK1) was 68%, the “Percent Activity, P38MAPK” value (P38MAPK) was 60% and the “SMC proliferation compared to control (20 ng/ml TNF-α alone)” value ([1]; 0.25 mM MMI-0100) was “slightly increased”. For the same sequence, the “increase in SMC proliferation compared to control (20 ng/ml TNF-α alone)” value ([1]; 0.5 mM MMI-0100) was 12%, the “increase in SMC proliferation compared to control (20 ng/ml TNF-α alone)” value ([1]; 1 mM MMI-0100) was 7% and the “SMC morphology, phase contrast images” value ([1]; 24 hours treatment) was “no obvious morphological changes”. For the same sequence, the EC apoptosis [2] was “did not induce EC apoptosis”, the MCP-1 production [3] was “did not stimulate MCP-1 production” and the “evidence of toxicity, tissue erosion, or necrosis” value [4] was “did not show any evidence”.
